Values after ≈ are worked out from the molar mass of the structure shown.
Experiments:
[1] = system: B. amyloliquefaciens ART4; assay: Antibiotic MIC, VetMIC Lact-1 & Lact-2 panels; format: cell-based, Bacillus amyloliquefaciens; settings: average results from N= 6, 24 hr at 37° C.; for MIC: Bacillus amyloliquefaciens, ART4
Experimental: (§1) The wells of the prefabricated 96-well plates were filled with 100 μL of the final suspension. The plates were sealed with an […], Sigma Aldrich) sealing film (to facilitate growth of the aerobic Bacillus strains. The plates were then incubated for 24 hr at 37° C. The results are recorded after 24 hours as the lowest concentration of the antibiotic to inhibit visible growth. The prefabricated panels […], Uppsala, Sweden) comprising the antibiotics ampicillin, vancomycin, gentamicin, kanamycin, streptomycin, erythromycin, clindamycin, tetracycline, chloramphenicol, neomycin, penicillin, quinupristin-dalfopristin, linezolid, trimethoprim, ciprofloxacin and rifampicin were used.

[2] = system: B. amyloliquefaciens ART24; assay: Antibiotic MIC, VetMIC Lact-1 & Lact-2 panels; format: cell-based, Bacillus amyloliquefaciens; settings: average results from N= 6, 24 hr at 37° C.; for MIC: Bacillus amyloliquefaciens, ART24
Experimental: as §1

[3] = system: B. amyloliquefaciens ART12; assay: Antibiotic MIC, VetMIC Lact-1 & Lact-2 panels; format: cell-based, Bacillus amyloliquefaciens; settings: average results from N= 6, 24 hr at 37° C.; for MIC: Bacillus amyloliquefaciens, ART12
Experimental: as §1

[4] = system: B. amyloliquefaciens ART24; assay: Antibiotic MIC following EFSA testing recommendations on lyophilized ART24 lots and cell banks; format: cell-based, Bacillus amyloliquefaciens; settings: for MIC: Bacillus amyloliquefaciens, read-out: MIC for ART24
Excerpt: The minimum inhibitory concentration (MIC) of the listed antimicrobials is expressed as µg/mL.

[5] = system: B. amyloliquefaciens ART4; assay: MIC of metronidazole and fidaxomicin, CLSI standard method; format: cell-based; settings: Bacillus amyloliquefaciens, triplicates, 16 hours, read-out: MIC against ART4
Experimental: (§2) Briefly, minimum inhibitory concentration assays were carried out in triplicate using 96-well plates (Sarstedt). Two-fold serial dilutions from an initial concentration of 512 µg/mL of each antibiotic were carried out in BHI broth (Merck). An overnight of the target strain was subcultured and incubated to an OD600 nm of 0.5 before being diluted to give a final inoculum of 10^5 cfu/ml in 200 µL and added to the antibiotic preparations. The plates were incubated at an appropriate temperature and inspected after 16 hours. The MIC was determined as the lowest concentration at which no growth was visible.

[6] = system: B. amyloliquefaciens ART24; assay: as above; format: cell-based; settings: Bacillus amyloliquefaciens, triplicates, 16 hours, read-out: MIC against ART24
Experimental: as §2

[7] = system: B. amyloliquefaciens ART12; assay: as above; format: cell-based; settings: Bacillus amyloliquefaciens, triplicates, 16 hours, read-out: MIC against ART12
Experimental: as §2

| Compound | MIC [1] | MIC [2] | MIC [3] | MIC ([4]; ART24, source CO-33-12A2) | MIC ([4]; ART24, source CO-33 ART 24 BHI) | MIC ([4]; ART24, source CO-33 ART 024 S) | MIC ([4]; ART24, source YD CO-33-10A2) | MIC interpretation for ART24 ([4]; source CO-33-12A2) | MIC interpretation for ART24 ([4]; source CO-33 ART 24 BHI) | MIC interpretation for ART24 ([4]; source CO-33 ART 024 S) | MIC interpretation for ART24 ([4]; source YD CO-33-10A2) | further results |
| --- | --- | --- | --- | --- | --- | --- | --- | --- | --- | --- | --- | --- |
| COc1cc(Cc2cnc(N)nc2N)cc(OC)c1OC [Trimethoprim] | ≤ 0.12 µg/mL | ≤ 0.12 µg/mL | ≤ 0.12 µg/mL | ≤ 0.25 µg/mL | ≤ 0.25 µg/mL | ≤ 0.25 µg/mL | ≤ 0.25 µg/mL |  |  |  |  |  |
| CCc1c(Cl)c(O)c(Cl)c(O)c1C(=O)O[C@H]1[C@H](O)[C@H](OC)[C@H](OC/C2=C\C=C\C[C@H](O)/C(C)=C/[C@H](CC)[C@@H](O[C@@H]3OC(C)(C)[C@@H](OC(=O)C(C)C)[C@H](O)[C@@H]3O)/C(C)=C/C(C)=C/C[C@@H]([C@@H](C)O)OC2=O)O[C@@H]1C [Fidaxomicin, fidaxomicin] |  |  |  | 4 µg/mL (≈ 3.78 µM) | 4 µg/mL (≈ 3.78 µM) | 4 µg/mL (≈ 3.78 µM) | 2 µg/mL (≈ 1.89 µM) |  |  |  |  | MIC [5]: < 1 µg/mL; MIC [6]: 2 µg/mL; MIC [7]: < 1 µg/mL |
| O=C(N[C@H](CO)[C@H](O)c1ccc([N+](=O)[O-])cc1)C(Cl)Cl [Chloramphenicol] | 2 µg/mL (≈ 6.19 µM) | 4 µg/mL (≈ 12.4 µM) | 4 µg/mL (≈ 12.4 µM) | 2 µg/mL (≈ 6.19 µM) | 2 µg/mL (≈ 6.19 µM) | 2 µg/mL (≈ 6.19 µM) | 2 µg/mL (≈ 6.19 µM) | S | S | S | S |  |
| Gentamicin |  |  |  |  |  |  |  | S | S | S | S | B. amyloliquefaciens MIC ART4 [1]: ≤0.5 µg/mL; B. amyloliquefaciens MIC ART24 [2]: ≤0.5 µg/mL; B. amyloliquefaciens MIC ART12 [3]: ≤0.5 µg/mL; MIC for ART24 ([4]; source CO-33-12A2): ≤ 0.06 µg/mL; MIC for ART24 ([4]; source CO-33 ART 24 BHI): ≤ 0.06 µg/mL; MIC for ART24 ([4]; source CO-33 ART 024 S): ≤ 0.06 µg/mL; MIC for ART24 ([4]; source YD CO-33-10A2): ≤ 0.06 µg/mL |
| Quinupristin-dalfopristin |  |  |  |  |  |  |  |  |  |  |  | B. amyloliquefaciens MIC ART4 [1]: 4 µg/mL; B. amyloliquefaciens MIC ART24 [2]: 4 µg/mL; B. amyloliquefaciens MIC ART12 [3]: 4 µg/mL; MIC for ART24 ([4]; source CO-33-12A2): 2 µg/mL; MIC for ART24 ([4]; source CO-33 ART 24 BHI): 2 µg/mL; MIC for ART24 ([4]; source CO-33 ART 024 S): 2 µg/mL; MIC for ART24 ([4]; source YD CO-33-10A2): 1 µg/mL |
| CO[C@H]1/C=C/O[C@@]2(C)Oc3c(C)c(O)c4c(O)c(c(/C=N/N5CCN(C)CC5)c(O)c4c3C2=O)NC(=O)/C(C)=C\C=C\[C@H](C)[C@H](O)[C@@H](C)[C@@H](O)[C@@H](C)[C@H](OC(C)=O)[C@@H]1C [Rifampicin] | 0.25 µg/mL (≈ 0.304 µM) | 0.5 µg/mL (≈ 0.608 µM) | 0.5 µg/mL (≈ 0.608 µM) | 0.25 µg/mL (≈ 0.304 µM) | 0.25 µg/mL (≈ 0.304 µM) | 0.25 µg/mL (≈ 0.304 µM) | 0.25 µg/mL (≈ 0.304 µM) | S | S | S | S |  |
| [H]/N=C(/N)N[C@H]1[C@H](O)[C@@H](O)[C@H](O[C@@H]2O[C@@H](C)[C@](O)(C=O)[C@H]2O[C@@H]2O[C@@H](CO)[C@H](O)[C@@H](O)[C@@H]2NC)[C@@H](N/C(N)=N\[H])[C@@H]1O [Streptomycin] | 4 µg/mL (≈ 6.88 µM) | 4 µg/mL (≈ 6.88 µM) | 4 µg/mL (≈ 6.88 µM) | 1 µg/mL (≈ 1.72 µM) | 1 µg/mL (≈ 1.72 µM) | 2 µg/mL (≈ 3.44 µM) | 1 µg/mL (≈ 1.72 µM) | S | S | S | S |  |
| CN(C)[C@@H]1C(O)=C(C(N)=O)C(=O)[C@@]2(O)C(O)=C3C(=O)c4c(O)cccc4[C@@](C)(O)[C@H]3C[C@@H]12 [Tetracycline] | 1 µg/mL (≈ 2.25 µM) | 4 µg/mL (≈ 9 µM) | 8 µg/mL (≈ 18 µM) | 2 µg/mL (≈ 4.5 µM) | 2 µg/mL (≈ 4.5 µM) | 2 µg/mL (≈ 4.5 µM) | 2 µg/mL (≈ 4.5 µM) | S | S | S | S |  |

From patent US20230132133A1, “METHODS AND COMPOSITIONS FOR THE TREATMENT OF C. DIFFICILE” (priority 2018, published 2023)
